Measured values taken from patent US20210123061A1, “METHODS AND COMPOSITIONS FOR TREATING INFLAMMATORY DISEASE OR DISORDER” (THE BRIGHAM AND WOMEN'S HOSPITAL, INC., priority 2018, published 2021).

B1: Ribosomal S6 Kinase-1 (RSK1), recombinant (protein)
chain: MEQDPKPPRLRLWALIPWLPRKQRPRISQTSLPVPGPGSGPQRDSDEGVLKEISITHHVKAGSEKADPSHFELLKVLGQGSFGKVFLVRKVTRPDSGHLYAMKVLKKATLKVRDRVRTKMERDILADVNHPFVVKLHYAFQTEGKLYLILDFLRGGDLFTRLSKEVMFTEEDVKFYLAELALGLDHLHSLGIIYRDLKPENILLDEEGHIKLTDFGLSKEAIDHEKKAYSFCGTVEYMAPEVVNRQGHSHSADWWSYGVLMFEMLTGSLPFQGKDRKETMTLILKAKLGMPQFLSTEAQSLLRALFKRNPANRLGSGPDGAEEIKRHVFYSTIDWNKLYRREIKPPFKPAVAQPDDTFYFDTEFTSRTPKDSPGIPPSAGAHQLFRGFSFVATGLMEDDGKPRAPQAPLHSVVQQLHGKNLVFSDGYVVKETIGVGSYSECKRCVHKATNMEYAVKVIDKSKRDPSEEIEILLRYGQHPNIITLKDVYDDGKHVYLVTELMRGGELLDKILRQKFFSEREASFVLHTIGKTVEYLHSQGVVHRDLKPSNILYVDESGNPECLRICDFGFAKQLRAENGLLMTPCYTANFVAPEVLKRQGYDEGCDIWSLGILLYTMLAGYTPFANGPSDTPEEILTRIGSGKFTLSGGNWNTVSETAKDLVSKMLHVDPHQRLTAKQVLQHPWVTQKDKLPQSQLSHQDLQLVKGAMAATYSALNSSKPTPQLKPIESSILAQRRVRKLPSTTL

Biological target: T1, Signal transducer and activator of transcription 1 (STAT1)
T1 chain: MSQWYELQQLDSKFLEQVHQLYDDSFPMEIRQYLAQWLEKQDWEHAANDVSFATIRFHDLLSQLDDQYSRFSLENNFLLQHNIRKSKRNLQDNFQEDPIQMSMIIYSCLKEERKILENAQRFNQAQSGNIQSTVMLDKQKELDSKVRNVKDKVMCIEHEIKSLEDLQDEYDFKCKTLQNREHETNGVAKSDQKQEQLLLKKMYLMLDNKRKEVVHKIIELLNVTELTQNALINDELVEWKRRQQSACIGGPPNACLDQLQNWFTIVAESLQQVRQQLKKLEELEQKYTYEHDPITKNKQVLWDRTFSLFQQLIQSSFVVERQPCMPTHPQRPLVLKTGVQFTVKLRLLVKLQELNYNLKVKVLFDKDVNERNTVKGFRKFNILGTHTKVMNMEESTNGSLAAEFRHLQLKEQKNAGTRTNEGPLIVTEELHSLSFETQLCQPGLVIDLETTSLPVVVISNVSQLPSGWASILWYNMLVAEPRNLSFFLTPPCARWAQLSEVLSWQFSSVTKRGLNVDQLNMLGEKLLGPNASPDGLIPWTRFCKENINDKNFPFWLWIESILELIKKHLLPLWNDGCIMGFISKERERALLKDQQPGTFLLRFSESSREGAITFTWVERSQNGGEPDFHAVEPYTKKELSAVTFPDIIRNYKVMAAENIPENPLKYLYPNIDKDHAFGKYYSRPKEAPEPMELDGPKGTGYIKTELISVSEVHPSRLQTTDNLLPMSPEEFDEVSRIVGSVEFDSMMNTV
Details: not given

Row | Molecule | phosphorylation of STAT1 at Ser727 in vitro (kinase reaction, immunoblot)
1 | B1 | RSK1 is capable of phosphorylating STAT1 at Ser727 in vitro

system: RSK1 (S230p) phosphorylation site; details: MCF7 cell line; P100 dataset; cited from earlier work

Row | Molecule | modulation of RSK1-S230p phosphorylation
2 | CN[C@@H]1C[C@H]2O[C@@](C)([C@@H]1OC)n1c3ccccc3c3c4c(c5c6ccccc6n2c5c31)C(=O)NC4 [Staurosporine] | modulated

same assay, conditions: PC3 cell line; P100 dataset; cited from earlier work

Row | Molecule | modulation of RSK1-S230p phosphorylation
3 | O=C(c1ccc(C(=O)N2CCC(N3CCCC3)CC2)c(Nc2ccccc2)c1)N1CCC(N2CCCC2)CC1 [UNC-1215] | modulated

same assay, conditions: YAPC cell line; P100 dataset; cited from earlier work

Row | Molecule | modulation of RSK1-S230p phosphorylation
4 | Cc1c[nH]c(-c2cnc(NCCNc3ccc(C#N)cn3)nc2-c2ccc(Cl)cc2Cl)n1 [CHIR-99021] | modulated
5 | C=C1[C@@H](O)[C@@H]2O[C@]3(CC[C@H](/C=C/[C@@H](C)[C@@H]4CC(C)=C[C@@]5(O[C@H](C[C@@](C)(O)C(=O)O)CC[C@H]5O)O4)O3)CC[C@H]2O[C@@H]1[C@@H](O)C[C@H](C)[C@H]1O[C@@]2(CCCCO2)CC[C@H]1C [okadaic acid] | modulated
6 | O=C(CCCCCCC(=O)Nc1ccccc1)NO [vorinostat] | modulated

system: RSK1 (RPS6KA1) gene expression; details: FIG. 20; cited from earlier work

Row | Molecule | RSK1 expression effect under various conditions
7 | C=CCn1c(=O)c2cnc(Nc3ccc(N4CCN(C)CC4)cc3)nc2n1-c1cccc(C(C)(C)O)n1 [MK-1775] | U937-specific effect

same assay, conditions: Table 1; pert_type trt_cp = small molecule, trt_sh = shRNA; cited from earlier work

Row | Molecule | RSK1 (agents that alter RSK1 expression)
8 | CN(C)C(=O)c1cccc(-c2cccc(-c3nc(C(=O)NC4CCCCC4)cc4c3[C@@H](CCO)N([S@+]([O-])C(C)(C)C)C4)c2)c1 [BRD-K08663380] | −0.65
9 | CC1=NN(c2ccc(C(=O)O)cc2)C(=O)/C1=C/c1ccc(-c2cc(C)c(C)cc2[N+](=O)[O-])o1 [BRD-K68548958] | −0.99
10 | O=C1[C@H](Cc2ccc(O)cc2)N2C(=O)CCN(C(=O)NCc3ccccc3)[C@H]2CN1Cc1cccc2ccccc12 [BRD-K73261812] | −0.97
11 | c1ccc2c(-c3cnn4cc(-c5ccc(N6CCNCC6)cc5)cnc34)ccnc2c1 [LDN-193189] | −1.38
12 | CCNC(=O)c1noc(-c2cc(C(C)C)c(O)cc2O)c1-c1ccc(CN2CCOCC2)cc1 [NVP-AUY922] | −1.23
13 | Oc1cccc(-c2nc(N3CCOCC3)c3oc4ncccc4c3n2)c1 [PI-103] | −0.54
14 | FC(F)c1nc2ccccc2n1-c1nc(N2CCOCC2)nc(N2CCOCC2)n1 [ZSTK-474] | −0.73
15 | C=C[C@](C)(O)CC/C=C(\C)C(=O)O[C@H]1[C@H](O)[C@@H](O)[C@H](O[C@@](C)(C=C)CC/C=C(\CO)C(=O)O[C@H]2C[C@]3(C(=O)O[C@@H]4O[C@H](CO)[C@@H](O)[C@H](O)[C@H]4O[C@@H]4O[C@@H](C)[C@H](O[C@@H]5O[C@@H](CO)[C@H](O)[C@H]5O)[C@@H](O[C@@H]5O[C@H](CO)[C@@H](O)[C@H](O)[C@H]5O)[C@H]4O)[C@H](O)C[C@]4(C)C(=CC[C@@H]5[C@@]6(C)CC[C@H](O[C@@H]7O[C@H](CO[C@@H]8O[C@H](C)[C@H](O)[C@H](O)[C@H]8O[C@@H]8OC[C@@H](O)[C@H](O)[C@H]8O)[C@@H](O)[C@H](O)[C@H]7NC(C)=O)C(C)(C)[C@@H]6CC[C@]54C)[C@@H]3CC2(C)C)O[C@@H]1C [avicin-g] | −1.17
16 | C/C=C/C/C=C/CCC(=O)[C@H]1O[C@H]1C(N)=O [cerulenin, (2R,3S)-3-[(4E,7E)-1-Oxo-4,7-nonadien-1-yl]-2-oxiranecarboxamide] | −1.40
17 | CCCC[C@@H](C)/C=C(C)/C=C(\C)C(=O)NC1=C[C@@](O)(/C=C/C=C/C=C/C(=O)NC2=C(O)CCC2=O)C2O[C@@H]2C1=O (stereo partly drawn) [manumycin-a, N-[(1S,5S,6R)-5-hydroxy-5-[(1E,3E,5E)-7-[(2-hydroxy-5-oxo-1-cyclopenten-1-yl)amino]-7-oxo-1,3,5-heptatrien-1-yl]-2-oxo-7-oxabicyclo [4.1.0]hept-3-en-3-yl]-2E,4E,6R-trimethyl,2,4-decadienamide] | −1.48
18 | CC(C(=O)Nc1cccc(/N=C/c2c(O)ccc3ccccc23)c1)c1ccccc1 (stereo not shown) [salermide] | −0.98
19 | C[S+]([O-])CCCCN=C=S (stereo not shown) [sulforaphane] | −0.50
20 | CC(C)C[C@@H](C(=O)N[C@H](C(=O)OC1CCCC1)c1ccccc1)[C@H](O)C(=O)NO [tosedostat, αS-[[(2R)-2-[(1S)-1-hydroxy-2-(hydroxyamino)-2-oxoethyl]-4-methyl-1-oxopentyl]amino]-benzeneacetic acid, cyclopentyl ester] | −0.96

same assay, conditions: Table 2; cited from earlier work

Row | Molecule | RPS6KA1 (small molecules that inhibit RSK1 expression)
21 | C/C=C/C/C=C/CCC(=O)[C@H]1O[C@H]1C(N)=O [cerulenin, (2R,3S)-3-[(4E,7E)-1-Oxo-4,7-nonadien-1-yl]-2-oxiranecarboxamide] | −1.40
22 | CCCC[C@@H](C)/C=C(C)/C=C(\C)C(=O)NC1=C[C@@](O)(/C=C/C=C/C=C/C(=O)NC2=C(O)CCC2=O)C2O[C@@H]2C1=O (stereo partly drawn) [manumycin-a, N-[(1S,5S,6R)-5-hydroxy-5-[(1E,3E,5E)-7-[(2-hydroxy-5-oxo-1-cyclopenten-1-yl)amino]-7-oxo-1,3,5-heptatrien-1-yl]-2-oxo-7-oxabicyclo [4.1.0]hept-3-en-3-yl]-2E,4E,6R-trimethyl,2,4-decadienamide] | −1.48
23 | CC(C(=O)Nc1cccc(/N=C/c2c(O)ccc3ccccc23)c1)c1ccccc1 (stereo not shown) [salermide] | −0.98
24 | C=CCNC1=C2C[C@@H](C)C[C@H](OC)[C@H](O)[C@@H](C)/C=C(\C)[C@H](OC(N)=O)[C@@H](OC)/C=C\C=C(/C)C(=O)NC(=CC1=O)C2=O [tanespimycin, 17-N-allylamino-17-demethoxygeldanamycin] | −1.17
25 | CC(C)C[C@@H](C(=O)N[C@H](C(=O)OC1CCCC1)c1ccccc1)[C@H](O)C(=O)NO [tosedostat, αS-[[(2R)-2-[(1S)-1-hydroxy-2-(hydroxyamino)-2-oxoethyl]-4-methyl-1-oxopentyl]amino]-benzeneacetic acid, cyclopentyl ester] | −0.96
